“Also recorded” adds a separate entry of the source.

Assay [1] has as its target T1, human polycystin-2 CTD EF hand (I704-P797) (Homo sapiens, UniProt Q13563).
T1 construct: The C-terminal fragment of the human polycystin-2 (I704-P797) was cloned into the PET19b vector; 10xHis (N); made in house; host or cells: E. coli BL21 (DE3)
T1 sequence (Q13563 704-797): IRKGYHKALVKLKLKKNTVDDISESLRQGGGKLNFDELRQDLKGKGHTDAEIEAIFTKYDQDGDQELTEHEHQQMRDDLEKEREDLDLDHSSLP
Description: Isothermal titration calorimetry of divalent ions into the CTD of polycystin-2. In kind it is binding. Here is the method:
CTD protein expression, purification, and isothermal titration calorimetry. The C-terminal fragment of the human polycystin-2 (I704-P797) was cloned into the PET19b vector and transformed into BL21 (DE3) competent cells (New England Biolabs) for bacterial expression. The translated peptide has a 10×His tag on its N-terminus. The alanine mutants of the individual calcium-coordinating residues were created and transformed as well. Cells were grown in 2XYT broth in a 37° C. shaking incubator until OD600 reaches ˜0.6, and were induced by 0.4 mM isopropyl 1-thio-β-D-galactopyranoside and grown for another 4 hours. Cells were harvested and resuspended in Buffer A (500 mM NaCl, 20 mM Tris/HCl, pH 7.4), 5% glycerol, 0.25 mM EDTA pH 8.0, 1 mM PMSF (RPI), 25 μg/ml of lysozyme and DNase I (GoldBio). The suspension was then lysed by sonication and clarified by centrifugation (30,000×g for 0.5 h). Filtered supernatant was loaded into a HisPur cobalt Superflow agarose column (ThermoScientific). The column was washed with 10 column volume (CV) of buffer A, 5 CV of buffer A+5 mM imidazole, and finally eluted with 3 CV of buffer A+100 mM imidazole. The eluate was desalted by dialysis in 150 mM NaCl, 20 mM Tris/HCl, 20 mM imidazole, pH 7.4. SDS-PAGE gel confirmed the expression, solubility, and purity of the peptide. All of our solutions were formulated with ultrapure water (Milli-Q® IQ 7005 water purification system), that has less than 0.29 ng/L calcium ions present. The binding affinity is recorded based on the heat difference between the sample cell and reference cell measured by MicroCal iTC200. […] The cells were insulated by an adiabatic jacket held at 25° C. The heat of dilution of Ca^2+ was not subtracted from data sets, as the signal was prohibitively small for several of the mutant channels. The exothermic energy of the bimolecular interaction between Ca^2+ and peptide during each injection was analyzed by integrating the change in heat to generate the binding isotherm. […]

Assay [2] addresses T2, PKD2 (Homo sapiens, UniProt Q13563).
T2 sequence (Q13563 1-968): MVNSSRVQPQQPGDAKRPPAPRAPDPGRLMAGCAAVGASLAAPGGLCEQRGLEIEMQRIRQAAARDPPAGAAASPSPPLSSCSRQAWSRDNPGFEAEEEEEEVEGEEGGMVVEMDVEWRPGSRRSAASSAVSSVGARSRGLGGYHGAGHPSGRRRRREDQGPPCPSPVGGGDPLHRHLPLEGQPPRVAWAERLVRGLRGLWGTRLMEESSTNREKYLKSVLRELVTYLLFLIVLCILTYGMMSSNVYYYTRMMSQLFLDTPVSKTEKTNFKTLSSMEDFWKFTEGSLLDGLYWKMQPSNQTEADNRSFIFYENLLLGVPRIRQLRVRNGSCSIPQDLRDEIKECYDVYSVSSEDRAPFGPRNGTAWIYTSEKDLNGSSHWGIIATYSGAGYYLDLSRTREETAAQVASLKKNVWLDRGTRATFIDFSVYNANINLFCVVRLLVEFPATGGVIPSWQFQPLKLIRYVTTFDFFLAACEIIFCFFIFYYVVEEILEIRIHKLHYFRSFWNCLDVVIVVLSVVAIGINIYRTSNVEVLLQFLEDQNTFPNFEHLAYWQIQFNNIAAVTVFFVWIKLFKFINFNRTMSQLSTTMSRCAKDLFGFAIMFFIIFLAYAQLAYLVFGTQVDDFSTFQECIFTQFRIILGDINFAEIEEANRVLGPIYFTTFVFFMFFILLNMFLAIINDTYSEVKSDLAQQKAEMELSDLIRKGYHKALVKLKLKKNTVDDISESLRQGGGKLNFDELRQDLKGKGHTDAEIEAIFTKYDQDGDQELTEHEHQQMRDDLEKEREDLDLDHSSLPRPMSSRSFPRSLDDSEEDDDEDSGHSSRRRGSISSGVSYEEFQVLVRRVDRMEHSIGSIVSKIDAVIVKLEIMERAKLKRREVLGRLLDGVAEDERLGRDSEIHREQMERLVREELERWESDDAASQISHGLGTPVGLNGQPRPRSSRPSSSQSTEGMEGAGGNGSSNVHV
Description: P. pastoris PKD2 Ca2+-dependent yeast growth assay (Stage 1). Particulars: P. pastoris strain Y5634; read-out: EC50, yeast growth dependent on stimulation of PKD2 cation transport. Format: cell-based. The source says: (§1) FIG. 31. […] Top, the screening of each stage. […] Bottom, cilia Ca^2+ responses from cells with PKD2 present and knocked out using CRISPR=Cas9 (N=17 cells each). D, E) Stage 3 (Cilia Electrophysiology): image of a patched cilia from collecting ducts and corresponding PKD2-dependent current activated by NS1643.
(§2) Our screening strategy included three stages. (See FIG. 31). In Stage 1 of our screening assay, we utilized cyst cells in a P. pastoris (strain YS634) PKD2 Ca^2+-dependent yeast growth assay. P. pastoris growth is dependent on induction and stimulation of PKD2 ion transport by test compounds including NS1643, calmidazolium, and W-13. In Stage 2, we measured PKD2 activation by the test compounds using increased ciliary Ca2+ fluorescence and membrane potential from human kidney collecting duct cells in which PKD2 had been knocked out by CRISPR-Cas9. In Stage 3, we assessed activation of polystin-2 dependent currents by the test compounds via imaging of patched cilia from collecting ducts and measuring change in current versus voltage. […] (See FIG. 32).

Assay [3] concerns the target T2, PKD2. Description: Cilia electrophysiology of patched cilia from collecting ducts (Stage 3). Format: cell-based.
Description: as §1, §2

The target of assay [4] is T2, PKD2. In words: Three stage testing strategy for PKD2 activators. In kind it is cell-based. Particulars: three screening stages.
Description: as §1
The polycystin pharmacophore remains outstanding because these channels localize to the primary cilium—an antenna-like organelle that requires innovative tools to study. To address this knowledge gap, our laboratory has established a series of cilia-specific channel activity reporters (voltage and calcium reporters) and model systems (poly cystin-dependent yeast growth) which will be used in a three-stage drug screen to characterize the pharmacology of polycystins. We screened a commercially available chemical library containing 384 compounds for activity against wild type polycystins, and identified three channel activators. […]
Our screening strategy included three stages. […] In Stage 2, we measured PKD2 activation by the test compounds using increased ciliary Ca2+ fluorescence and membrane potential from human kidney collecting duct cells in which PKD2 had been knocked out by CRISPR-Cas9. In Stage 3, we assessed activation of polystin-2 dependent currents by the test compounds via imaging of patched cilia from collecting ducts and measuring change in current versus voltage. […]

For assay [5], the target named is T2, PKD2. In words: Cilia Ca2+ fluorescence (smo-GCaMP3), Stage 2. Format: cell-based. Also on record: cilia Ca^2+ responses from cells with PKD2 present and knocked out using CRISPR=Cas9; endogenous in cells; host or cells: human kidney collecting duct cells expressing the smo-GCaMP3 cilia reporter. Particulars: smo-GCaMP3, human kidney collecting duct cells; read-out: EC50, increased ciliary Ca2+ fluorescence.
Description: as §1, §2

The target in assay [6] is T2, PKD2. In words: PKD2 conductance assay. In kind it is cell-based. The source says:
FIG. 35. Conductance of PKD2 in the presence of test compounds CAS Number 57265-65-3 (calmidazolium (CMZ)), CAS Number 617-27-0 (W-13), and CAS Number 448895-37-2 (NS1643)
We also tested the additional compound CAS Number 57265-65-3 (calmidazolium (CMZ)), the compound CAS Number 617-27-0 (W-13), and NS1643 in a PKD2 conductance assay.

The target of another assay is T3, polycystin-2 (Homo sapiens, UniProt Q13563).
T3 construct: expressed in transfected cells
T3 sequence (Q13563 1-968): T2 sequence (Q13563 1-968)
Format: cell-based. Particulars: 10 μM, voltage ramps. The source says: Generation of HEK PKD2^Null cells line and the stable expression PKD2 variants. To generate the HEK PKD2^Null cell lines, we used a CRISPR/Cas9 gene editing kit available from Addgene (kit 1000000055). HEK 293 cells were electro-transfected with sgRNAs (caccg[…] and aaac[…]c) with the All-in-one Cas9 plasmid. […] Cells generated from single cell clones were selected after 4 weeks of expansion in a 96-wells plate. […] To generate the WT and variant PKD2 GFP or mCherry C-terminally tagged variant cell lines, the hPKD gene was subcloned into lentiviral pLVX-mcherry-N1 (Clontech) or pLVX-GFP-N1 (Clontech) vector using the Gibson assembly method. A linker encoding for six glycine residues was added between the PKD2 gene and the C-terminal tags, and missense variants were generated using standard, site-directed mutagenesis. The third-generation lentiviral packaging plasmids used for stable expression contained: pMDLg/pRRE (Addgene), […] pRSV-Rev (Addgene), and envelope expressing plasmid pMD2.G (Addgene). LentiX-293T cells (Takara) were transfected with polyethylineimine (Polysciences) at a 4:1:1:1 ratio of the transgene and viral packaging constructs. Supernatants were collected 48 and 72 hours post transfection and filtered through a 0.45 μm syringe filter. Lentiviral supernatant was concentrated 100 times using 1 volume of PEG-it (System Biosciences) virus precipitation solution and 4 volume of lentivirus-containing supernatant. The PEG-it and supernatant mixture were kept at 4 degrees for 24 hours and centrifuged at 1500 rpm for 30 minutes. The pellet containing lentivirus was resuspended with 1/100th volume of PBS of the original supernatant volume. HEK cells were infected with the lentivirus supernatant; PKD2-GFP or PKD2-mCherry expression was selected using culture media containing puromycin (2 μg/ml) for 30 to 90 days. Cells were then fluorescence-activated cell sorted (BD FacsMelody) at 5000 to 10,000 counts per minute to enrich for the transgene expression. Stable cell lines were cultured in Dulbecco's modified essential medium (DMEM) supplemented with 10% fetal bovine serum (FBS) and 100 units/ml penicillin, 100 units/ml streptomycin and 1 μg/ml puromycin selection antibiotic.
(§3) Electrophysiology. Ciliary ion currents were recorded using borosilicate glass electrodes polished to resistances of 14-22 MΩ using the cilium patch method previously described^32. Whole cell electrodes used to measure poly cystin-2L1 currents were fire polished to 1.5-4 MΩ resistances. Unless otherwise stated, whole cilia ionic currents were recorded in symmetrical [Na^+]. The pipette standard internal solution contained (in mM): 90 NaMES, 10 NaCl, 10 HEPES, 10 Na4-BAPTA (Glycine, N, N′-[1,2-ethanediylbis(oxy-2,1-phenylene)]bis[N-(carboxymethyl)]-,tetrasodium); pH was adjusted to 7.3 using NaOH. Standard bath solution contained 140 NaCl, 10 HEPES, 1.8 CaCl2); pH 7.4. All solutions were osmotically balanced to 295 (±6) mOsm with mannitol. Extracellular solutions containing TCEP and GSH were used within six hours of formulation. Data were collected using an Axopatch 200B patch clamp amplifier, Digidata 1440A, and pClamp 10 software. Whole-cilium and excised patch currents were digitized at 25 kHz and low-pass filtered at 10 kHz. In the whole cilium configuration, the holding potential was −60 mV and then depolarized using a 400 ms voltage ramp from −100 mV to 100 mV. The whole cell recordings of polycystin-2L1 currents were either activated by the same ramp protocol or by 100 ms depolarizations to 100 mV from a −100 mV holding potential.

The test system of another assay is polycystin-2L1. Format: cell-based. Particulars: 10 μM, plasma membrane of HEK cells. How it is done: as §3, with “potential. External conditions were controlled using a Warner Perfusion Fast-Step (SF-77B) system in which the patched cilia and electrode were held in the perfusate stream. Data were analyzed by Igor Pro 7.00 (Wavemetrics, Lake Oswego, Oreg.). The polycystin-2 open probability and the polycystin-2L1 tail current-voltage relationships were fit to a Boltzmann function, f(x)=1/(1+exp[V−V1/2]/k) to estimate voltage of half-maximal activation of current (V1/2).” for “potential.”

For the molecule `[Mg+2]` [Mg^2+], in assay [1], the “Affinity of other divalent ions for polycystin-2 EF hand” value is listed as “did not have affinity”.
The EC50 is the midpoint of the concentration-response curve. On to `O=C(Nc1cc(C(F)(F)F)ccc1O)Nc1cc(C(F)(F)F)ccc1O` [NS1643, 1,3-bis[2-hydroxy-5-(trifluoromethyl)phenyl]urea], for which the EC50 at PKD2 [2] was 1100 nM; at PKD2 [5], 2300 nM. Also, at PKD2 [3], the PKD2-dependent current result was “activated”. Further, on PKD2 [4], the “Identification as PKD2 activator” value was “identified as an activator of PKD2 activity; also recorded: exemplary PKD2 activator”. Further, the PKD2 conductance result at PKD2 [6] was “increased PKD2 conductance”.
Consider `NCCCCCCNS(=O)(=O)c1cccc2c(Cl)cccc12` [W-13, N-(6-Aminohexyl)-5-chloro-1-naphthalenesulfonamide], for which the PKD2 conductance entry at PKD2 [6] is listed as “increased PKD2 conductance”.
Consider `[Zn+2]` [Zn^2+], for which the “Affinity of other divalent ions for polycystin-2 EF hand” value in assay [1] is “did not have affinity”.
Turning to `[La]` [lanthanum], the “Block of ciliary WT polycystin-2 currents by trivalent ions” value on polycystin-2 was “blocked”. Besides, the “Block of polycystin-2L1 currents by trivalent ions” value with polycystin-2L1 is on record as “blocked”.

Values taken from patent publication US20210369677A1, “SMALL MOLECULE ACTIVATORS OF POLYCYSTIN-2 (PKD2) AND USES THEREOF” (Northwestern University, priority 2020, published 2021).
